# Patent US11498899B2, “Nitrone herbicides” (FMC Corporation, priority 2016, dated 2022)
# Assays:
# [1] = tested on: wheat (Triticum aestivum); test: Test A postemergence, visual injury rating 0-100; format: in vivo; conditions: 0 to 100 scale
# [2] = tested on: barnyardgrass (Echinochloa crus-galli); test: Test A postemergence, visual injury rating 0-100; format: in vivo; conditions: 0 to 100 scale
# [3] = tested on: blackgrass (Alopecurus myosuroides); test: Test A postemergence, visual injury rating 0-100; format: in vivo; conditions: 0 to 100 scale
# [4] = tested on: kochia (Kochia scoparia); test: Test A postemergence, visual injury rating 0-100; format: in vivo; conditions: 0 to 100 scale
# [5] = tested on: ragweed (common ragweed, Ambrosia elatior); test: Test A postemergence, visual injury rating 0-100; format: in vivo; conditions: 0 to 100 scale
# [6] = tested on: foxtail, green (green foxtail, Setaria viridis); test: Test A postemergence, visual injury rating 0-100; format: in vivo; conditions: 0 to 100 scale
# [7] = tested on: corn (Zea mays); test: Test A postemergence, visual injury rating 0-100; format: in vivo; conditions: 0 to 100 scale
# [8] = tested on: pigweed (Amaranthus retroflexus); test: Test A postemergence, visual injury rating 0-100; format: in vivo; conditions: 0 to 100 scale
# [9] = tested on: ryegrass, Italian (Italian ryegrass, Lolium multiflorum); test: Test A postemergence, visual injury rating 0-100; format: in vivo; conditions: 0 to 100 scale
# [10] = tested on: ducksalad (Heteranthera limosa); test: Test B flooded paddy test, visual rating 0-100; conditions: Flood, 250 g ai/ha, applied to paddy water, rated after 13 to 15 days
# [11] = tested on: barnyardgrass (Echinochloa crus-galli); test: Test A preemergence, visual injury rating 0-100 (0 no effect, 100 complete control); format: in vivo; conditions: for Barnyardgrass plant response rating (0 to 100 scale): 125 g ai/ha; for Barnyardgrass plant response rating: 500 g ai/ha, 0 to 100 scale
# [12] = tested on: rice (Oryza sativa); test: Test B flooded paddy test, visual rating 0-100 (0 no effect, 100 complete control); conditions: Flood, 250 g ai/ha, applied to paddy water, rated after 13 to 15 days
# [13] = tested on: kochia (Kochia scoparia); test: Test A preemergence, visual injury rating 0-100; format: in vivo
# [14] = tested on: ragweed (common ragweed, Ambrosia elatior); test: Test A preemergence, visual injury rating 0-100; format: in vivo
# [15] = tested on: foxtail, green (green foxtail, Setaria viridis); test: Test A preemergence, visual injury rating 0-100; format: in vivo
# [16] = tested on: pigweed (Amaranthus retroflexus); test: Test A preemergence, visual injury rating 0-100; format: in vivo
# [17] = tested on: ryegrass, Italian (Italian ryegrass, Lolium multiflorum); test: Test A preemergence, visual injury rating 0-100; format: in vivo
# [18] = tested on: barnyardgrass (Echinochloa crus-galli); test: Test B flooded paddy test, visual rating 0-100; conditions: Flood, 250 g ai/ha, applied to paddy water, rated after 13 to 15 days
Structure (SMILES),Wheat plant response rating ([1]; 125 g ai/ha),Wheat plant response rating ([1]; 500 g ai/ha),Barnyardgrass plant response rating ([2]; 125 g ai/ha),Barnyardgrass plant response rating ([2]; 500 g ai/ha),Blackgrass plant response rating ([3]; 125 g ai/ha),Blackgrass plant response rating ([3]; 500 g ai/ha),Kochia plant response rating ([4]; 125 g ai/ha),Kochia plant response rating ([4]; 500 g ai/ha),Ragweed plant response rating ([5]; 125 g ai/ha),Ragweed plant response rating ([5]; 500 g ai/ha),"Foxtail, Green plant response rating ([6]; 125 g ai/ha)","Foxtail, Green plant response rating ([6]; 500 g ai/ha)",Corn plant response rating ([7]; 125 g ai/ha),Corn plant response rating ([7]; 500 g ai/ha),Pigweed plant response rating ([8]; 125 g ai/ha),Pigweed plant response rating ([8]; 500 g ai/ha),"Ryegrass, Italian plant response rating ([9]; 500 g ai/ha)",Ducksalad plant response rating (0 to 100 scale) [10],Barnyardgrass plant response rating (0 to 100 scale) [11],Barnyardgrass plant response rating [11],other results
O=C(Nc1cccc(F)c1F)C1C(c2ccccc2)CC(C(F)(F)F)=[N+]1[O-] (racemic) [Compound 35],0,0,0,0,0,0,0,0,0,0,0,0,0,0,0,0,0,0,0,0,"Ryegrass, Italian plant response rating ([9]; 125 g ai/ha): 0; Rice plant response rating (0 to 100 scale) [12]: 0; Kochia plant response rating (0 to 100 scale) ([13]; 125 g ai/ha): 0; Kochia plant response rating (0 to 100 scale) ([13]; 500 g ai/ha): 0; Ragweed plant response rating (0 to 100 scale) ([14]; 125 g ai/ha): 0; Ragweed plant response rating (0 to 100 scale) ([14]; 500 g ai/ha): 0; Foxtail, Green plant response rating (0 to 100 scale) ([15]; 125 g ai/ha): 0; Foxtail, Green plant response rating (0 to 100 scale) ([15]; 500 g ai/ha): 0; Pigweed plant response rating (0 to 100 scale) ([16]; 125 g ai/ha): 0; Pigweed plant response rating (0 to 100 scale) ([16]; 500 g ai/ha): 0; Ryegrass, Italian plant response rating (0 to 100 scale) ([17]; 125 g ai/ha): 0; Ryegrass, Italian plant response rating (0 to 100 scale) ([17]; 500 g ai/ha): 0; Barnyardgrass plant response rating (0 to 100 scale) [18]: 0"
CC1=[N+]([O-])C(C(=O)Nc2ccncc2C(F)(F)F)C(c2ccc(C(F)(F)F)cc2)C1 (racemic) [Compound 36],0,0,0,0,20,20,0,0,0,0,0,20,20,0,0,0,20,0,70,60,"Rice plant response rating (0 to 100 scale) [12]: 0; Kochia plant response rating (0 to 100 scale) ([13]; 125 g ai/ha): 0; Kochia plant response rating (0 to 100 scale) ([13]; 500 g ai/ha): 90; Ragweed plant response rating (0 to 100 scale) ([14]; 125 g ai/ha): 0; Ragweed plant response rating (0 to 100 scale) ([14]; 500 g ai/ha): 80; Foxtail, Green plant response rating (0 to 100 scale) ([15]; 125 g ai/ha): 0; Foxtail, Green plant response rating (0 to 100 scale) ([15]; 500 g ai/ha): 100; Pigweed plant response rating (0 to 100 scale) ([16]; 125 g ai/ha): 0; Pigweed plant response rating (0 to 100 scale) ([16]; 500 g ai/ha): 60; Ryegrass, Italian plant response rating (0 to 100 scale) ([17]; 125 g ai/ha): 10; Ryegrass, Italian plant response rating (0 to 100 scale) ([17]; 500 g ai/ha): 60; Barnyardgrass plant response rating (0 to 100 scale) [18]: 30"
CC1=[N+]([O-])C(C(=O)Nc2ccc(F)c(F)c2F)C(c2ccc(C(F)(F)F)cc2)C1 (racemic) [Compound 38],30,60,90,60,40,70,0,0,0,20,70,90,20,70,0,30,20,65,90,100,"Ryegrass, Italian plant response rating ([9]; 125 g ai/ha): 30; Rice plant response rating (0 to 100 scale) [12]: 0; Kochia plant response rating (0 to 100 scale) ([13]; 125 g ai/ha): 0; Kochia plant response rating (0 to 100 scale) ([13]; 500 g ai/ha): 90; Ragweed plant response rating (0 to 100 scale) ([14]; 125 g ai/ha): 30; Ragweed plant response rating (0 to 100 scale) ([14]; 500 g ai/ha): 90; Foxtail, Green plant response rating (0 to 100 scale) ([15]; 125 g ai/ha): 100; Foxtail, Green plant response rating (0 to 100 scale) ([15]; 500 g ai/ha): 100; Pigweed plant response rating (0 to 100 scale) ([16]; 125 g ai/ha): 30; Pigweed plant response rating (0 to 100 scale) ([16]; 500 g ai/ha): 80; Ryegrass, Italian plant response rating (0 to 100 scale) ([17]; 125 g ai/ha): 30; Ryegrass, Italian plant response rating (0 to 100 scale) ([17]; 500 g ai/ha): 50; Barnyardgrass plant response rating (0 to 100 scale) [18]: 60"
CC1=[N+]([O-])C(C(=O)Nc2ccccc2S(C)(=O)=O)C(c2ccc(C(F)(F)F)cc2)C1 (racemic) [Compound 43],0,0,20,60,0,30,0,0,0,0,20,60,0,0,0,0,20,0,20,100,"Ryegrass, Italian plant response rating ([9]; 125 g ai/ha): 0; Rice plant response rating (0 to 100 scale) [12]: 0; Kochia plant response rating (0 to 100 scale) ([13]; 125 g ai/ha): 0; Kochia plant response rating (0 to 100 scale) ([13]; 500 g ai/ha): 80; Ragweed plant response rating (0 to 100 scale) ([14]; 125 g ai/ha): 0; Ragweed plant response rating (0 to 100 scale) ([14]; 500 g ai/ha): 100; Foxtail, Green plant response rating (0 to 100 scale) ([15]; 125 g ai/ha): 80; Foxtail, Green plant response rating (0 to 100 scale) ([15]; 500 g ai/ha): 100; Pigweed plant response rating (0 to 100 scale) ([16]; 125 g ai/ha): 40; Pigweed plant response rating (0 to 100 scale) ([16]; 500 g ai/ha): 90; Ryegrass, Italian plant response rating (0 to 100 scale) ([17]; 125 g ai/ha): 0; Ryegrass, Italian plant response rating (0 to 100 scale) ([17]; 500 g ai/ha): 0; Barnyardgrass plant response rating (0 to 100 scale) [18]: 0"
